Values of other authors as cited in patent publication US6670388B1, “Fatty acid synthase inhibitors” (SmithKline Beecham Corporation, priority 2000, dated 2003).

Key:
[1] = tested on: bacteria; conditions: in vivo and in vitro
[2] = tested on: FabB & F
[3] = tested on: all three condensing enzymes
[4] = tested on: mammalian FASs

## C/C=C/C/C=C/CCC(=O)[C@H]1O[C@H]1C(N)=O [cerulenin]
[1]
  antibacterial activity: bactericidal
[2]
  inhibition of FabB & F: potent inhibitor of FabB & F

## C=C/C(C)=C/[C@@]1(C)SC(=O)C(C)=C1O [thiolactomycin]
[3]
  inhibition of condensing enzymes: specifically inhibit all three condensing enzymes
[4]
  inhibition of mammalian FASs: does not inhibit mammalian FASs
[1]
  antibacterial activity: broad-spectrum antibacterial activity both in vivo and in vitro
